# Read-outs that look alike come from different tables or passages of the source.
# Experiments:
# [1] = molecular target: ALR2 (Homo sapiens, UniProt P15121); test: In vitro ALR2 inhibition assay (NADPH absorbance, DL-glyceraldehyde substrate); format: biochemical; conditions: for Ki: ALR2, DL-glyceraldehyde substrate, mean ±SEM (n = 3)
# Protocol: The protocol followed earlier steady-state kinetic studies with minor adjustments. Measurements were performed at 37 °C in 10 mM sodium phosphate buffer (pH 7.4) in 1 mL quartz cuvettes (1 cm path length). Each reaction mixture contained 0.11 mM NADPH and DL-glyceraldehyde at final concentrations between 0.071 and 0.376 mM. Test compounds were introduced from DMSO stock solutions, and the total DMSO content was kept below 1% (v/v).
# Prior to substrate addition, the enzyme and inhibitor were combined and left on ice for 1 min to allow initial complex formation. The reaction was initiated by adding DL-glyceraldehyde, and the decrease in absorbance at 340 nm (ε340 = 6.22 mM^−1 cm^−1) was recorded for 180 s using a calibrated UV-Vis instrument. […] All values represent the mean of triplicate determinations, and the entire experiment was repeated on three separate days (n = 3). Reaction rates were calculated from the linear segment of each kinetic trace.
# For selected compounds, including compound 5, extended kinetic analyses were conducted by varying both substrate and inhibitor levels. The resulting Lineweaver-Burk plots (1/v vs. 1/[S]) were used to interpret the inhibition pattern (Figure 18). Secondary replots were used to extract KI values by linear regression. Data processing and curve fitting were performed in GraphPad Prism (v10.0), and kinetic parameters are expressed as mean ± SEM.
# [2] = tested on: MCF-7 cells; conditions: cited from earlier work
# [3] = tested on: A549 cells; set-up: method as in doi:10.1016/j.molstruc.2024.139067; conditions: read-out: IC50 against A549 cells; cited from earlier work
# [4] = molecular target: T1, EGFR (Homo sapiens, UniProt P00533); conditions: read-out: EGFR inhibition IC50 (converted); cited from earlier work
# T1 construct: purchased Promega V3831
# [5] = tested on: A549 (NSCLC) cells; test: MTT cytotoxicity assay in A549 cells; format: cell-based; conditions: for reduction in A549 viability: 10 µM; for IC50: Homo sapiens, A549
# Protocol: (§1) A549 (ATCC, Manassas, VA, USA) and MCF-7 (ATCC, VA, USA) cells were grown in Dulbecco’s Modified Eagle Medium (DMEM; Wako, Osaka, Japan) containing 10% fetal bovine serum (FBS; Equitech-Bio, Kerrville, TX, USA). Jurkat T-cells (ATCC, VA, USA) were maintained in RPMI-1640 medium (Wako Pure Chemical Industries, Osaka, Japan) supplemented with 10% FBS, while PBMCs (Precision Bioservices, Frederick, MD, USA) were expanded in the same medium supplemented with 10% human AB serum (Gemini, Woodland, CA, USA). Streptomycin was added to all culture media at a final concentration of 89 µg/mL (Meiji Seika Pharma, Tokyo, Japan). All cells were kept at 37 °C under humidified conditions with 5% CO2. For viability measurements, A549 and MCF-7 cells were seeded into 24-well plates, whereas PBMCs were dispensed into 96-well plates (Iwaki, Asahi Glass, Chiba, Japan) at initial densities of 4 × 10^4 cells/mL and 5 × 10^5 cells/mL, respectively. […] The DMSO content was kept constant at 1% in all wells. Cell viability was assessed using the MTT colorimetric assay (Dojindo, Kumamoto, Japan), following established procedures with minor protocol refinements previously reported in the literature.
# [6] = tested on: MCF-7 (breast cancer) cells; test: MTT cytotoxicity assay in MCF-7 cells; format: cell-based; conditions: for reduced viability in MCF-7 cells: 10 µM; for IC50: Homo sapiens, MCF7
# Protocol: as §1
# [7] = tested on: Jurkat leukemia cells; test: MTT cytotoxicity assay in Jurkat cells; format: cell-based; conditions: Homo sapiens
# Protocol: (§2) A549 (ATCC, Manassas, VA, USA) and MCF-7 (ATCC, VA, USA) cells were grown in Dulbecco’s Modified Eagle Medium (DMEM; Wako, Osaka, Japan) containing 10% fetal bovine serum (FBS; Equitech-Bio, Kerrville, TX, USA). Jurkat T-cells (ATCC, VA, USA) were maintained in RPMI-1640 medium (Wako Pure Chemical Industries, Osaka, Japan) supplemented with 10% FBS, while PBMCs (Precision Bioservices, Frederick, MD, USA) were expanded in the same medium supplemented with 10% human AB serum (Gemini, Woodland, CA, USA). Streptomycin was added to all culture media at a final concentration of 89 µg/mL (Meiji Seika Pharma, Tokyo, Japan). All cells were kept at 37 °C under humidified conditions with 5% CO2. For viability measurements, A549 and MCF-7 cells were seeded into 24-well plates, whereas PBMCs were dispensed into 96-well plates (Iwaki, Asahi Glass, Chiba, Japan) at initial densities of 4 × 10^4 cells/mL and 5 × 10^5 cells/mL, respectively. […] Concentrated stock solutions were prepared in dimethyl sulfoxide (DMSO; Wako Pure Chemical Industries) and diluted with culture medium to final assay concentrations ranging from […]. The DMSO content was kept constant at 1% in all wells. Cell viability was assessed using the MTT colorimetric assay (Dojindo, Kumamoto, Japan), following established procedures with minor protocol refinements previously reported in the literature.
# [8] = tested on: peripheral blood mononuclear cells (PBMCs); test: MTT cytotoxicity assay in PBMCs (selectivity); format: cell-based; conditions: for SI (Selectivity Index): IC50 for PBMC/IC50 for Jurkat cell line; for IC50: PBMC, MTT assay
# Protocol: as §2
# [9] = molecular target: T1, EGFR; test: EGFR kinase inhibition (Promega EGFR TK kit, ADP-Glo); format: biochemical
# Protocol: (§3) EGFR kinase activity was monitored using the Promega EGFR TK kit (Cat. No. V3831) at final test concentrations of 1 µM and 10 µM. HER-2 activity was assessed under analogous conditions using the Promega HER-2 TK kit (Cat. No. V9381) at 10 µM, in accordance with earlier studies. For each assay, the enzyme and its substrate were diluted in a mixture containing 95 µL of 2.5× kinase buffer and 15 µL of 100 µM ATP. Reactions were assembled in 384-well plates by dispensing 4 µL of each compound solution (0.1–100 µM) into wells containing 8 µL of the enzyme/ATP/substrate preparation. Plates were incubated for 1.5 h at room temperature, after which ADP formation, reflecting kinase turnover, was quantified using the ADP-Glo™ detection system (Promega, Madison, WI, USA). Luminescence was measured with an Infinite M1000 reader (Tecan, Grödig, Austria).
# [10] = tested on: A549 cells; test: Apoptosis, Annexin V/ethidium homodimer staining; format: cell-based; conditions: IC50 concentration, 24 h
# Protocol: After exposure, cells were detached using 0.05% trypsin, rinsed twice with 1× binding buffer, and prepared for fluorescence-based apoptotic assessment. The resulting pellet was suspended in a staining mixture consisting of 50 µL of 1× binding buffer, along with 4 µL each of FITC-Annexin V, ethidium homodimer III, and Hoechst 33342. The suspension was incubated for 20 min at room temperature in the dark to ensure proper labeling. Following staining, cells were washed again with binding buffer, fixed in 2% paraformaldehyde, and briefly rinsed with phosphate-buffered saline (PBS). Apoptotic and necrotic populations were visualized and recorded using a Biorevo BZ-9000 fluorescence microscope (Keyence, Osaka, Japan), following procedures adapted from previously reported workflows.
# [11] = molecular target: T2, HER-2 (Homo sapiens, UniProt P04626); test: HER-2 kinase inhibition (Promega HER-2 TK kit, ADP-Glo); format: biochemical
# T2 construct: purchased Promega V9381
# Protocol: as §3
# [12] = read-out: IC50 against MCF-7 cells
# T1 sequence (P00533 25-1210): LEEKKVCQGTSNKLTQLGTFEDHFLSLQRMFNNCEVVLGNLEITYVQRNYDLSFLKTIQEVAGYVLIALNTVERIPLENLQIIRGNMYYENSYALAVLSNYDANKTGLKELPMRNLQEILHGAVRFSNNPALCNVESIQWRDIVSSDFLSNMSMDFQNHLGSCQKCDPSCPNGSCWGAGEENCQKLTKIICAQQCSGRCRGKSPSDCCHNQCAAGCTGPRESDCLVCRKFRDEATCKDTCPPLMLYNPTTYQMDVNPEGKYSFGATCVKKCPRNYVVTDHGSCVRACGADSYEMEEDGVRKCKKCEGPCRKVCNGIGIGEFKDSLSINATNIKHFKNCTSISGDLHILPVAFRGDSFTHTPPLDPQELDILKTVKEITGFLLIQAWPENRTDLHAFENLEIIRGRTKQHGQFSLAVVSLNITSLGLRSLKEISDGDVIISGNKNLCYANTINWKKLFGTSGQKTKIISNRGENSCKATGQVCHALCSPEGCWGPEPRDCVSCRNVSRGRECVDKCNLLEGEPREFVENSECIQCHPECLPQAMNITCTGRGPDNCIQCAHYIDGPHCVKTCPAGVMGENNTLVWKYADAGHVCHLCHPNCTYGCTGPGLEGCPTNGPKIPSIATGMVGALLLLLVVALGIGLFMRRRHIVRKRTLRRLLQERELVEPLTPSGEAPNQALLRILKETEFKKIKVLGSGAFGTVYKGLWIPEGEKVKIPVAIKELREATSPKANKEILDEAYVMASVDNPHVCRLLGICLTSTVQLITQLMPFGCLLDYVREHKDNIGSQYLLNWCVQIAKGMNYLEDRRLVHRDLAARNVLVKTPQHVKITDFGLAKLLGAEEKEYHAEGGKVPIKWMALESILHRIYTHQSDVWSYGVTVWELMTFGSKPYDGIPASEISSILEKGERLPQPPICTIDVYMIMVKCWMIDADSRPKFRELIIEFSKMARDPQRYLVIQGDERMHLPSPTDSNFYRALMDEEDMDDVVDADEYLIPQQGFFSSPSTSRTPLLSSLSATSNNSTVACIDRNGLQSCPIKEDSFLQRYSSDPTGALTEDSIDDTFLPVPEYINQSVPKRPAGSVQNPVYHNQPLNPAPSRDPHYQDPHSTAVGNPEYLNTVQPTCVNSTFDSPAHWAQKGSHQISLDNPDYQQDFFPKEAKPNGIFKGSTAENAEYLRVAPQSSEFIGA
# T2 sequence (P04626 23-1255): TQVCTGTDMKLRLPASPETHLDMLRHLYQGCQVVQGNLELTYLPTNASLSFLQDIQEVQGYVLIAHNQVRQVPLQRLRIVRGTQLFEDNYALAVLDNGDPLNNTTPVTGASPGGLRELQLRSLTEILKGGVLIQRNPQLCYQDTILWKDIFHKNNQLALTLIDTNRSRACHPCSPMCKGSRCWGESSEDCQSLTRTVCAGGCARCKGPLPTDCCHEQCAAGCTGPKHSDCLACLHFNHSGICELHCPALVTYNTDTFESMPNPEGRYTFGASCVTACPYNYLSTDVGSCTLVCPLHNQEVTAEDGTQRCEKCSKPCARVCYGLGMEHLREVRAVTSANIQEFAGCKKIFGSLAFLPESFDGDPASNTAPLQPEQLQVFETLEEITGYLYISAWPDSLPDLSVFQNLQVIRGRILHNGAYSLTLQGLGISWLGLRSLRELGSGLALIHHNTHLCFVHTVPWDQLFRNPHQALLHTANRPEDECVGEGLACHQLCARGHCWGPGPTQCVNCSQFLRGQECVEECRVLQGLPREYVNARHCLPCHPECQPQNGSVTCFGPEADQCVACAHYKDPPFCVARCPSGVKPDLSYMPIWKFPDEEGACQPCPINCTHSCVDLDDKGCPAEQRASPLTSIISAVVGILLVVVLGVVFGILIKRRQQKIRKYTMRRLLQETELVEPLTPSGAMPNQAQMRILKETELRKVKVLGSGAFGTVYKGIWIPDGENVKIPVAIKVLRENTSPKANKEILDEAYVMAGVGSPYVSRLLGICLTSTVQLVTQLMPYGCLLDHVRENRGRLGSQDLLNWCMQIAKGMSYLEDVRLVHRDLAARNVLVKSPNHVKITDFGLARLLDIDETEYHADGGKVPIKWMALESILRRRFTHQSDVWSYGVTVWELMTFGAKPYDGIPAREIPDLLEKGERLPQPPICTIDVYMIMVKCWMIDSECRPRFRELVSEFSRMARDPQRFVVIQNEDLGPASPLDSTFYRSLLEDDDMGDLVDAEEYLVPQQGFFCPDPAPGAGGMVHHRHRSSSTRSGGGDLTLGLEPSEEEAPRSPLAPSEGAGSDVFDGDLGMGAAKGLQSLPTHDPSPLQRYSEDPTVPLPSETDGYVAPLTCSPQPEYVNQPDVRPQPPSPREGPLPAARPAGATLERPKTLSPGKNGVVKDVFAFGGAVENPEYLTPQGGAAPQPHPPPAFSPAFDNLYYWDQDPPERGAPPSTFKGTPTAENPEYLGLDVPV
compound,measurement,setting,value
"Cn1ccnc1/C=N/Nc1nc(-c2ccc3ccccc3c2)cs1 [Compound 11, 1-[(4-(Naphthalen-2-yl)-1,3-thiazol-2-yl)amino]-2-[(1-methyl-1H-imidazol-2-yl)methylidene]hydrazine]",Ki,[1],1.91 ± 0.1 µM
"Cc1ccc(-c2csc(N/N=C/c3nccn3C)n2)cc1 [Compound 7, 1-[(4-(4-Methylphenyl)-1,3-thiazol-2-yl)amino]-2-[(1-methyl-1H-imidazol-2-yl)methylidene]hydrazine]",Ki,[1],0.28 ± 0.03 µM
"Cn1ccnc1/C=N/Nc1nc(-c2ccccc2)cs1 [Compound 1, 1-[(4-Phenyl-1,3-thiazol-2-yl)amino]-2-[(1-methyl-1H-imidazol-2-yl)methylidene]hydrazine]",Ki,[1],2.64 ± 0.16 µM
"Cn1ccnc1/C=N/Nc1nc(-c2ccc(C#N)cc2)cs1 [Compound 6, 1-[(4-(4-Cyanophenyl)-1,3-thiazol-2-yl)amino]-2-[(1-methyl-1H-imidazol-2-yl)methylidene]hydrazine]",Ki,[1],0.21 ± 0.02 µM
"Cn1ccnc1/C=N/Nc1nc(-c2ccc(Cl)cc2)cs1 [Compound 4, 1-[(4-(4-Chlorophenyl)-1,3-thiazol-2-yl)amino]-2-[(1-methyl-1H-imidazol-2-yl)methylidene]hydrazine]",Ki,[1],0.28 ± 0.03 µM
O=[N+]([O-])c1ccc(-c2csc(N/N=C/c3c4ccccc4cc4ccccc34)n2)cc1 [Compound A5],IC50,[2]; [12],7 µM
same,IC50,[3],8.51 µM
same,IC50,[4],0.88 µM
"COc1ccc(-c2csc(N/N=C/c3nccn3C)n2)cc1 [Compound 8, 1-[(4-(4-Methoxyphenyl)-1,3-thiazol-2-yl)amino]-2-[(1-methyl-1H-imidazol-2-yl)methylidene]hydrazine]",Ki,[1],0.21 ± 0.02 µM
"Cn1ccnc1/C=N/Nc1nc(-c2ccc(F)cc2)cs1 [Compound 3, 1-[(4-(4-Fluorophenyl)-1,3-thiazol-2-yl)amino]-2-[(1-methyl-1H-imidazol-2-yl)methylidene]hydrazine]",Ki,[1],0.44 ± 0.09 µM
Cn1ccnc1/C=N/Nc1nc(-c2ccc(Br)cc2)cs1 [Compound 5],reduction in A549 viability,[5],~ 59%
same,IC50,[5],6.87 ± 2.1 µM
same,reduced viability in MCF-7 cells,[6],67%
same,IC50,[6],2.78 ± 2.85 µM
same,IC50,[7],1.94 ± 0.65 µM
same,SI (Selectivity Index),[8],37.39
same,IC50,[8],72.5 ± 14 µM
same,inhibition at 1 µM,[9],23%
same,inhibition at 10 µM,[9],51%
same,Ki,[1],0.08 ± 0.01 µM
same,inhibition profile (Lineweaver–Burk),[1]; toward DL-glyceraldehyde,competitive inhibition profile
"Cn1ccnc1/C=N/Nc1nc(-c2ccc(-c3cccs3)cc2)cs1 [Compound 13, 1-[(4-(4-(Thiophen-2-yl)phenyl)-1,3-thiazol-2-yl)amino]-2-[(1-methyl-1H-imidazol-2-yl)methylidene]hydrazine]",reduction in A549 viability,[5],~ 67%
same,IC50,[5],1.33 ± 0.41 µM
same,reduced viability in MCF-7 cells,[6],69%
same,IC50,[6],1.74 ± 0.38 µM
same,IC50,[7],1.65 ± 0.4 µM
same,SI (Selectivity Index),[8],138.90
same,IC50,[8],229 ± 26.2 µM
same,apoptosis induction,[10],triggered apoptosis in A549 cells significantly compared with lapatinib
same,inhibition at 1 µM,[9],45%
same,inhibition at 10 µM,[9],74%
same,inhibition at 10 µM,[11],1.89%
same,Ki,[1],2.48 ± 0.14 µM
CCOC(=O)c1s/c(=N/N=C(\C)c2ccc(Nc3ccnc4cc(Cl)ccc34)cc2)n(C)c1C [Compound 6b],IC50,[2]; read-out: IC50 against MCF-7 cell line,5.35 µM
same,IC50,[4],0.0189 µM
"CS(=O)(=O)CCNCc1ccc(-c2ccc3ncnc(Nc4ccc(OCc5cccc(F)c5)c(Cl)c4)c3c2)o1 [Lapatinib, lapatinib, reference compound]",IC50,[5],17.9 ± 5.12 µM
same,IC50,[6],8.43 ± 2.85 µM
same,IC50,[7],1.35 ± 0.41 µM
same,IC50,[8],9.79 ± 2.69 µM
same,apoptosis induction,[10],highly significant increases vs. untreated control
same,inhibition at 10 µM,[11],93%
"Cn1ccnc1/C=N/Nc1nc(-c2ccc([N+](=O)[O-])cc2)cs1 [Compound 2, 1-[(4-(4-Nitrophenyl)-1,3-thiazol-2-yl)amino]-2-[(1-methyl-1H-imidazol-2-yl)methylidene]hydrazine]",Ki,[1],1.83 ± 0.11 µM
C/C(=N\Nc1nc(C)c(/N=N/c2ccc(Cl)cc2)s1)c1cccs1 [Compound 5j],IC50,[2]; read-out: IC50 toward MCF-7 cells,10.9 µM
same,IC50,[4],0.0828 µM
"Cn1ccnc1/C=N/Nc1nc(-c2ccc(C(F)(F)F)cc2)cs1 [Compound 9, 1-[(4-(4-Trifluoromethylphenyl)-1,3-thiazol-2-yl)amino]-2-[(1-methyl-1H-imidazol-2-yl)methylidene]hydrazine]",Ki,[1],0.91 ± 0.05 µM
"Cn1ccnc1/C=N/Nc1nc(-c2ccc3c(c2)OCO3)cs1 [Compound 12, 1-[(4-(Benzo[d][1,3]dioxol-5-yl)-1,3-thiazol-2-yl)amino]-2-[(1-methyl-1H-imidazol-2-yl)methylidene]hydrazine]",Ki,[1],2.01 ± 0.1 µM
"Cn1ccnc1/C=N/Nc1nc(-c2ccc(S(C)(=O)=O)cc2)cs1 [Compound 10, 1-[(4-(4-Methylsulfonylphenyl)-1,3-thiazol-2-yl)amino]-2-[(1-methyl-1H-imidazol-2-yl)methylidene]hydrazine]",Ki,[1],0.24 ± 0.02 µM
Cn1c(-c2csc(NN=C3CCCC3)n2)nc2ccccc21 [Compound 4a],IC50,[2]; [12],6.3 µM

# Source: PMC12845312, “Hydrazonylthiazole Derivatives as Dual EGFR and ALR2 Inhibitors: Design, Synthesis, and Comprehensive In Vitro and In Silico Evaluation for Potential Anticancer Activity” (Pharmaceuticals, 2025)
